From patent US20220008455A1, “Compound and Composition for Use in the Preventive and/or Curative Treatment of Diseases of the Central Nervous System Characterised by a Decline in Neuronal Plasticity, in Particular Characterised by a Decline in Synaptic Plasticity” (SYNAPHARM INDUSTRIAL SYNTHESIS, priority 2017, published 2022)

Test system: synaptic responses between Schaffer collaterals and dendrites in the CA1 region
Assay: Long-term potentiation in hippocampal slices of magnesium-deficient rats (restoration of synaptic plasticity)
Format: ex vivo, rat
Procedure: [Comparative experiments were conducted on rats to measure the efficiency of synaptic transmission and synaptic plasticity, in particular in order to measure the recovery of synaptic plasticity.
Three groups of rats were made up as follows:
Group 1: control rats on a normal diet;
Group 2: magnesium-deficient rats on a low-magnesium diet;
Group 3: magnesium-deficient rats supplemented with a composition according to the invention containing magnesium N-acetyl taurinate dihydrate containing two intrinsic water molecules (ATAMg dihydrate) at a dose of […] magnesium N-acetyl taurinate dihydrate containing two intrinsic water molecules (in the water). Supplementation was started 40 days after the beginning of the low-magnesium diet and was carried on for 24 days.
The hippocampi of the rats from each group were dissected to measure synaptic plasticity. In particular, synaptic responses were measured between Schaffer collaterals and dendrites in the CA1 region. A baseline was recorded for 30 minutes corresponding to a synaptic response of 40% of the peak response. Then the long-term plasticity process was induced by applying four 100 Hz trains at 5-minute intervals. The increased response was measured over four hours. For every experiment, a control pathway without any high-frequency stimulation was also measured.

## CC(=O)NCCS(=O)(=O)[O-].CC(=O)NCCS(=O)(=O)[O-].O.O.[Mg+2] [magnesium N-acetyl taurinate dihydrate]
Group 3: magnesium-deficient rats supplemented in the water at 50 mg/kg/hour (50 mg/kg/day) for 24 days, four 100 Hz trains, response measured over four hours, FIG. 3
  long-term potentiation: over 300%
Group 3: magnesium-deficient rats supplemented in the water for 24 days, control pathway without high-frequency stimulation, FIG. 3
  control pathway / baseline stability: stabilisation of the baseline
Comparison of Group 3 (supplemented) with Group 2 (magnesium-deficient rats)
  recovery/restoration of synaptic plasticity: induces the recovery/restoration of synaptic plasticity
